Test results as given in BindingDB's records for patent US8969325 (Abbvie, 2015).

Biological target: Transient receptor potential cation channel subfamily V member 1 (Homo sapiens, UniProt Q8NER1)
Experiment: Activation Assay
Method: Expression plasmids encoding the hTRPV1 cDNA were transfected into HEK293 cells using Lipofectamine. Forty-eight hours after transfection, the neomycin-resistant cells were selected with growth medium containing 800 ug/mL Geneticin (Life Technologies, formerly Gibco BRL). Surviving individual colonies were isolated and screened for TRPV1 activity.

Chain of Transient receptor potential cation channel subfamily V member 1 (Q8NER1 whole entry): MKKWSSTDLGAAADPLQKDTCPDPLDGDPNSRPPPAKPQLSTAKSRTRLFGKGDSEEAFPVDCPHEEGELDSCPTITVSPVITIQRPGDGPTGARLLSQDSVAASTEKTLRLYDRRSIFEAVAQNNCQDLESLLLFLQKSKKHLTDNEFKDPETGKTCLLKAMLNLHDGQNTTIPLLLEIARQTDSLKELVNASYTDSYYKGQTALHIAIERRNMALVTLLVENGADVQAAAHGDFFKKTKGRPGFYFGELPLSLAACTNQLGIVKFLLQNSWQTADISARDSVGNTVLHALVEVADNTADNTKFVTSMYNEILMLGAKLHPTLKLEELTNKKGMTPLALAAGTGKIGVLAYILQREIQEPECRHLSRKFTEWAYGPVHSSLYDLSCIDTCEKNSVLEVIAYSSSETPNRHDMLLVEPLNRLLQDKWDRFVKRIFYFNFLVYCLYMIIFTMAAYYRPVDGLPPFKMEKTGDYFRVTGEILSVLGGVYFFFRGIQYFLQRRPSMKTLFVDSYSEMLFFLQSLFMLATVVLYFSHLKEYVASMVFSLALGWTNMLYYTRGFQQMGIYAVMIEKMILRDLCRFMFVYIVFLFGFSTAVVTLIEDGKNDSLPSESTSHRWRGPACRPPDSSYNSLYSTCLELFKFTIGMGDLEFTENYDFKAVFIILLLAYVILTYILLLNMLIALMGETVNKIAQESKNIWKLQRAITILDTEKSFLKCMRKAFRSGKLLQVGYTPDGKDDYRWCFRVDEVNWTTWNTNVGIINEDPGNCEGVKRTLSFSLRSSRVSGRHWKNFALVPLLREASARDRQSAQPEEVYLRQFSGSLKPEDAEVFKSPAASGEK

IC50: 21 nM
SMILES: CN1C(=O)NCc2c(NC(=O)N[C@@H]3CC(C)(C(F)F)Oc4cc(Cl)ccc43)cccc21 (stereo partly specified) [US8969325, 136]
